Data on 8 compounds can be found in ChEMBL document CHEMBL5608240, “Structure-Activity Relationship of Inositol Thiophosphate Analogs as Allosteric Activators of Clostridioides difficile Toxin B” (J Med Chem, 2024).

Each structure is given as a SMILES string. Activity calls are given as the source filed them. No cut-off for these calls is given here.

The target in series [1] is Toxin B (Clostridioides difficile) (UniProt P18177). Kind of series: Binding affinity to His6 tagged Clostridioides difficile Toxin B truncated cysteine protease domain (543 to 799 residues) extracted from Escherichia coli BL21 (DE3) assessed as change in number of bound protons per binding interaction at 530 uM by ITC analysis. Conditions: filed as positive allosteric modulator. In general terms: In ITC the heat of successive injections is recorded.
Chain of Toxin B (Clostridioides difficile) (P18177 whole entry, the tested form may be a part): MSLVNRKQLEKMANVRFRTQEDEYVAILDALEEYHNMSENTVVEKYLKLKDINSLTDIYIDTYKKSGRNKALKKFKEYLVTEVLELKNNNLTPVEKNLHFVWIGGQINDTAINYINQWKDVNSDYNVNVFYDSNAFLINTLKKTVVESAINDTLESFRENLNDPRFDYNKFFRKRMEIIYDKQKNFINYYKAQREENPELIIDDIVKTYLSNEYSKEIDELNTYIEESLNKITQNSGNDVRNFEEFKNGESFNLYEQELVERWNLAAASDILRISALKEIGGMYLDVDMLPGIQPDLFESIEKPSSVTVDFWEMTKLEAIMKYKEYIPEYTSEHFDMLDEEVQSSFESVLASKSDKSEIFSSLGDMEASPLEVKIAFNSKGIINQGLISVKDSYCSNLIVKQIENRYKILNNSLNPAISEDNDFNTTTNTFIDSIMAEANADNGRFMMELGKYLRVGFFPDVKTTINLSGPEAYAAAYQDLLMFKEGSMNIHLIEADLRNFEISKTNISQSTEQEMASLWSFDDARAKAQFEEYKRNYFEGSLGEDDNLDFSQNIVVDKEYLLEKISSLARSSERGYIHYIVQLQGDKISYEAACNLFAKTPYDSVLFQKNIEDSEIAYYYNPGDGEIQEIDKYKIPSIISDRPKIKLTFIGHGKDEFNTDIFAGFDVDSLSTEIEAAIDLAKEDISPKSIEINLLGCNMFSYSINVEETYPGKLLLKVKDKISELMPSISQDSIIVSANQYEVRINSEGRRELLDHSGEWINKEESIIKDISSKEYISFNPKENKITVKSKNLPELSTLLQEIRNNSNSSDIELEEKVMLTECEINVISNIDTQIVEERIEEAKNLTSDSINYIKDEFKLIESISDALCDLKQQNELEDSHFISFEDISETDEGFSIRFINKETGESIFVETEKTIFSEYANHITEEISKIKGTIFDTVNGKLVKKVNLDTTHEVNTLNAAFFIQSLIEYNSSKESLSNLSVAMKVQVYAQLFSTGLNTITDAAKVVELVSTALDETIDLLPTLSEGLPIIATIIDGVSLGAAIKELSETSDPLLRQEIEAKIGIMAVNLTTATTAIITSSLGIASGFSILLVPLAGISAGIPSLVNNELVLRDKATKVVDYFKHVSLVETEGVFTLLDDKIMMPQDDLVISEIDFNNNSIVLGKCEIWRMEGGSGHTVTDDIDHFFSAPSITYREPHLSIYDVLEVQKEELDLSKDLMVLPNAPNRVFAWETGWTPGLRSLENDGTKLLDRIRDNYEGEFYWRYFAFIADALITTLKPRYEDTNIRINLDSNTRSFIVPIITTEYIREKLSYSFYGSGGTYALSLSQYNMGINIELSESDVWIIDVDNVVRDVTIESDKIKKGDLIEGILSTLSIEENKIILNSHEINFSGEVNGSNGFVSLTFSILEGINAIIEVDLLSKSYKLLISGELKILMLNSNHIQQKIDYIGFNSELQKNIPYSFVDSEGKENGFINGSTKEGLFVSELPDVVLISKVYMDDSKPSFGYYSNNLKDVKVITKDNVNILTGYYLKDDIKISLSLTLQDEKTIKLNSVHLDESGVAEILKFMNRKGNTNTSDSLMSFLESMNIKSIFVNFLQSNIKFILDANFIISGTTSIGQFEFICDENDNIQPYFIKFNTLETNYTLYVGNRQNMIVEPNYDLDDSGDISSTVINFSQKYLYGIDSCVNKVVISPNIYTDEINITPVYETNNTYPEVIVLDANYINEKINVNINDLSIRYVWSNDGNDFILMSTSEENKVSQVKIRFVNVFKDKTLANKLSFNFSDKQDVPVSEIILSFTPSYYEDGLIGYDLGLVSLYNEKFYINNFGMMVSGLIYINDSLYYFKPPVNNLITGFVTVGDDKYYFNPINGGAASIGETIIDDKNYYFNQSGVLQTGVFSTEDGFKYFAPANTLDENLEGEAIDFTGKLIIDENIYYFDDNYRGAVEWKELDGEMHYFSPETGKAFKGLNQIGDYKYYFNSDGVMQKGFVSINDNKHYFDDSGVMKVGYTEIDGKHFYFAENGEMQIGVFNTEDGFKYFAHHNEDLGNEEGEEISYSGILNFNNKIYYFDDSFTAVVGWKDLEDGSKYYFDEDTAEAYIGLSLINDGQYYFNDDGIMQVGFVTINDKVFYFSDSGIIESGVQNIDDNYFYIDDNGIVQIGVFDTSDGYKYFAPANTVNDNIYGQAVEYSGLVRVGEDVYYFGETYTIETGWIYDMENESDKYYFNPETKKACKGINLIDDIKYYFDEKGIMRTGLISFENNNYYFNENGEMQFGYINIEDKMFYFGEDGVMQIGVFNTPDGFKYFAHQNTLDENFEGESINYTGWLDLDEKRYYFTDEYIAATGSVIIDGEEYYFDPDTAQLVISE

Series [2] addresses T1, Toxin B (Clostridioides difficile, UniProt P18177). As to the kind of experiment: Binding affinity to His6 tagged Clostridioides difficile Toxin B truncated cysteine protease domain (543 to 799 residues) extracted from Escherichia coli BL21 (DE3) assessed as dissociation constant in presence of 10 mM Ca2+ by ITC method.
In series [3] the target is T1, Toxin B. Kind of series: Binding affinity to His6 tagged Clostridioides difficile Toxin B truncated cysteine protease domain (543 to 799 residues) extracted from Escherichia coli BL21 (DE3) assessed as dissociation constant by ITC method.
Series [4] has as its target Toxin B (Clostridioides difficile) (UniProt P18177). Kind of series: Allosteric activation of Clostridioides difficile Toxin B assessed as induction of autoproteolysis by measuring increase in TcdB cleavage at 50 uM incubated for 3 hrs in presence of 3 mM CaCl2 by silver staining based SDS-PAGE analysis.
Series [5] can be described thus: Solubility of compound assessed as precipitate formation at 250 uM at pH 2 to 8 incubated for 30 mins in presence of 1.25 to 10 mM MgCl2 by turbidimetric assay. Conditions: buffer, pH 2, 0.5 h. The format is physicochemical.
The target of series [6] is Toxin B (Clostridioides difficile) (UniProt P18177). As to the kind of experiment: Stabilization of His6 tagged Clostridioides difficile Toxin B truncated cysteine protease domain (543 to 799 residues) extracted from Escherichia coli BL21 (DE3) assessed as change in melting temperature by SYPRO Orange dye based differential scanning fluorometry analysis. (In general: DSF heats the sample and reads unfolding from a dye or from intrinsic fluorescence.)

Series [7] in a line: Solubility of compound assessed as precipitate formation at 250 uM at pH 2 to 8 incubated for 30 mins in presence of 3 to 10 mM CaCl2 by turbidimetric assay. Conditions: buffer, pH 2, 0.5 h. The format is physicochemical.
Series [8] is described as follows: Metal chelating activity assessed as compound-Mg2+ complex formation by measuring reduction in free cation concentration at 200 uM in presence of 200 uM MgCl2 by colorimetric assay.
In series [9] the target is Toxin B (Clostridioides difficile) (UniProt P18177). Kind of series: Allosteric activation of Clostridioides difficile Toxin B assessed as induction of autoproteolysis by measuring increase in TcdB cleavage at 50 uM incubated for 3 hrs in presence of 100 uM ZnCl2 by silver staining based SDS-PAGE analysis.
The target of series [10] is T1, Toxin B. Kind of series: Allosteric activation of Clostridioides difficile Toxin B assessed as induction of autoproteolysis measured after 3 hrs in presence of CaCl2, MgCl2, ZnCl2 by Western blot based extent cleavage assay.
Series [11] addresses Toxin B (Clostridioides difficile) (UniProt P18177). Kind of series: Allosteric activation of Clostridioides difficile Toxin B assessed as induction of autoproteolysis by measuring increase in TcdB cleavage at 50 uM incubated for 3 hrs in presence of 1.25 mM MgCl2 by silver staining based SDS-PAGE analysis.
In series [12] the target is T1, Toxin B. Kind of series: Allosteric activation of Clostridioides difficile Toxin B assessed as induction of autoproteolysis measured after 3 hrs by Western blot based extent cleavage assay.
Series [13] is described as follows: Metal chelating activity assessed as compound-Ca2+ complex formation by measuring reduction in free cation concentration at 200 uM in presence of 200 uM CaCl2 by colorimetric assay.
Series [14] can be described thus: Solubility of compound assessed as precipitate formation at 250 uM at pH 2 to 8 incubated for 30 mins in presence of 20 to 100 uM ZnCl2 by turbidimetric assay. The format is physicochemical. Conditions: buffer, pH 2, 0.5 h.
For series [15], the target named is Toxin B (Clostridioides difficile) (UniProt P18177). As to the kind of experiment: Competitive binding affinity to His6 tagged Clostridioides difficile […]-Toxin B truncated cysteine protease domain (543 to 799 residues) extracted from Escherichia coli BL21 (DE3) assessed as peaks with change in chemical shift perturbation at 350 uM by 31P-NMR analysis.
The target is the same in series [16]. As to the kind of experiment: Allosteric activation of Clostridioides difficile Toxin B assessed as induction of autoproteolysis by measuring increase in TcdB cleavage at 50 uM incubated for 3 hrs in presence of 10 mM CaCl2 by silver staining based SDS-PAGE analysis relative to control.
Series [17] has the same target. As to the kind of experiment: Allosteric activation of Clostridioides difficile Toxin B assessed as induction of autoproteolysis by measuring increase in TcdB cleavage at 50 uM incubated for 3 hrs in presence of 10 mM MgCl2 by silver staining based SDS-PAGE analysis.
Series [18] can be described thus: Metal chelating activity assessed as compound-Mg2+ complex formation by measuring precipitation at 250 uM at pH 2 to 8 incubated for 30 mins in presence of 1.25 to 10 mM MgCl2 by turbidimetric assay.
In series [19] the target is Toxin B (Clostridioides difficile) (UniProt P18177). Kind of series: Stabilization of His6 tagged Clostridioides difficile apo-Toxin B truncated cysteine protease domain (543 to 799 residues) extracted from Escherichia coli BL21 (DE3) assessed as chemical shift perturbation by measuring increase in number of peaks by 1H-15N-HSQC NMR analysis (reference value: 141).
Series [20] has the same target. As to the kind of experiment: Allosteric activation of Clostridioides difficile Toxin B assessed as induction of autoproteolysis by measuring maximal extent cleavage measured after 3 hrs by Western blot based extent cleavage assay relative to control. Conditions: filed as positive allosteric modulator. A general note: A western blot detects proteins with antibodies after separation by electrophoresis.

A short description of series [21]: Metal chelating activity assessed as compound-Ca2+ complex formation by measuring precipitation at 250 uM at pH 2 to 8 incubated for 30 mins in presence of 3 to 10 mM CaCl2 by turbidimetric assay.
Series [22] addresses Toxin B (Clostridioides difficile) (UniProt P18177). As to the kind of experiment: Competitive binding affinity to His6 tagged Clostridioides difficile Toxin B truncated cysteine protease domain (543 to 799 residues) extracted from Escherichia coli BL21 (DE3) assessed as peaks with change in chemical shift perturbation by measuring residual activity at 350 uM in presence of 1,3,5-(Tri-O-thiophosphate)-myo-inositol-2,4,6-tri-O-sulfate by 1H-15N-HSQC NMR analysis relative to control. Conditions: filed as positive allosteric modulator.

Series [23] has the same target. Kind of series: Stabilization of His6 tagged Clostridioides difficile holo-Toxin B truncated cysteine protease domain (543 to 799 residues) extracted from Escherichia coli BL21 (DE3) assessed as peaks with change in chemical shift perturbation at 350 uM by 1H-15N-HSQC NMR analysis relative to control.
For series [24] the target is unchanged. As to the kind of experiment: Allosteric activation of Clostridioides difficile Toxin B assessed as induction of autoproteolysis by measuring increase in TcdB cleavage at 50 uM measured after 3 hrs by silver staining based SDS-PAGE analysis relative to control. Conditions: filed as positive allosteric modulator.
Series [25] has the same target. As to the kind of experiment: Competitive binding affinity to His6 tagged Clostridioides difficile Toxin B truncated cysteine protease domain (543 to 799 residues) extracted from Escherichia coli BL21 (DE3) assessed as peaks with change in chemical shift perturbation by measuring residual activity at 350 uM in presence of (1R,2r,3S,4R,5s,6S)-cyclohexane-1,2,3,4,5,6-hexayl hexakis (dihydrogen phosphate) by 1H-15N-HSQC NMR analysis relative to control. Conditions: filed as positive allosteric modulator.

Series [26] has the same target. As to the kind of experiment: Allosteric activation of Clostridioides difficile Toxin B assessed as induction of autoproteolysis by measuring increase in TcdB cleavage measured after 3 hrs by silver staining based SDS-PAGE analysis. Conditions: filed as positive allosteric modulator.
The mark [27] stands for this setting: filed as positive allosteric modulator.

T1 sequence (P18177 whole entry, the tested form may be a part): as above

What is called Kd is the equilibrium constant for the complex coming apart. For the compound `O=S(=O)(O)O[C@H]1[C@H](OP(O)(O)=S)[C@@H](OS(=O)(=O)O)[C@H](OP(O)(O)=S)[C@@H](OS(=O)(=O)O)[C@H]1OP(O)(O)=S`, the Activity in series [1] was -0.01. For the same compound, the Kd came to 5.37 µM at Toxin B [2] and 2.26 µM at Toxin B [3].
Broadly, the ΔTm is the shift of the melting midpoint relative to a reference. Regarding `O=S(=O)(O)O[C@@H]1[C@@H](OP(O)(O)=S)[C@H](OS(=O)(=O)O)[C@H](OS(=O)(=O)O)[C@H](OS(=O)(=O)O)[C@H]1OP(O)(O)=S`, the outcome in series [4], in series [9] and in series [11] was inactive. Also, the solubility result in series [5], in [7] and in series [14] was “Soluble” throughout. Also, in [1], the Activity worked out at 0.11. For the same compound, in [6], the ΔTm was determined as 5.3 °C. The outcome in series [8] and in series [13] was Active. Besides, the Kd is 4.69 µM at Toxin B [2] and 2.2 µM on Toxin B [3]. Moreover, the EC50 on Toxin B [10] came to 557 µM; at Toxin B [12], 27.1 µM.
On to `O=P(O)(O)O[C@H]1[C@H](OP(=O)(O)O)[C@@H](OP(=O)(O)O)[C@H](OP(=O)(O)O)[C@@H](OP(=O)(O)O)[C@H]1OP(=O)(O)O` [PHYTIC ACID], for which the outcome in [15], in [4], in series [9] and in [11] was inactive. In addition, the Activity in [1] is -1.28; in [16] it was 6%; in [17], 23%; in series [19], 193; in series [20] it was 98%; in [22], 47%. For the same compound, the ΔTm in series [6] came out at 3.3 °C. The result in [18] and in [21] was Active. The EC50 was determined as 536 µM on Toxin B [10] and 8.39 µM on Toxin B [12]. Further, the Kd at Toxin B [3] stood at 1.36 µM.
As to `O=S(=O)(O)O[C@H]1[C@H](OP(O)(O)=S)[C@H](OS(=O)(=O)O)[C@H](OP(O)(O)=S)[C@@H](OS(=O)(=O)O)[C@@H]1OP(O)(O)=S`, the outcome in [15] (setting [27]), in series [8], in series [24] and in series [13] was Active. The outcome in series [4], in series [9] and in series [11] was inactive. The solubility entry in [5], in [7] and in series [14] was “Soluble” in each case. For the same compound, the Activity in series [1] was -0.03; in series [23] it was 49%; in series [16] (setting [27]) it was 51%; in series [17] (setting [27]) it was 42%; in [19] it was 208; in [20], 117%. Further, the Activity in series [25] was determined as 7%. Moreover, the ΔTm in [6] turned out to be 5.1 °C. Besides, the values for the Kd at Toxin B [2] and on Toxin B [3] were 2.66 µM and 0.662 µM, respectively. The figures for the EC50 on Toxin B [10] and on Toxin B [12] were 113 µM and 3.56 µM, respectively.
Regarding `OP(O)(=S)O[C@H]1[C@H](OP(O)(O)=S)[C@@H](OP(O)(O)=S)[C@H](OP(O)(O)=S)[C@@H](OP(O)(O)=S)[C@H]1OP(O)(O)=S`, the outcome in series [4], in series [9] and in series [11] was inactive. In addition, the solubility result in series [5], in series [7] and in series [14] was “Soluble” throughout. Further, the ΔTm in series [6] came out at 5.6 °C. Further, the result in series [8] and in [13] was Active. The values for the EC50 on Toxin B [10] and on Toxin B [12] were 657 µM and 2.31 µM, respectively. Besides, the Kd at Toxin B [3] is 0.184 µM.
In the case of `O=S(=O)(O)O[C@@H]1[C@@H](OS(=O)(=O)O)[C@H](OS(=O)(=O)O)[C@H](OP(O)(O)=S)[C@H](OS(=O)(=O)O)[C@H]1OS(=O)(=O)O`, the solubility entry in series [5], in series [7] and in [14] was “Soluble” in each case. Besides, on Toxin B [3], the Kd is 7.14 µM.
Take `O=P(O)(O)O[C@@H]1[C@@H](OP(=O)(O)O)[C@H](OP(=O)(O)O)[C@H](OCc2ccccc2)[C@H](OP(=O)(O)O)[C@H]1OP(=O)(O)O`: the result in series [26] was Active.
Regarding `O=S(=O)(O)O[C@H]1[C@@H](OS(=O)(=O)O)[C@H](OS(=O)(=O)O)[C@@H](OP(O)(O)=S)[C@H](OS(=O)(=O)O)[C@H]1OS(=O)(=O)O`, the outcome in [4], in series [9] and in [11] was inactive. The ΔTm in series [6] amounted to 3.1 °C. The result in [8], in series [24] and in series [13] was Active. At Toxin B [3], the Kd is 2.19 µM.
